The source made the active and inactive calls.
What was measured:
Assay type in all cases: functional
[1] = molecular target: Serine/threonine-protein kinase N2 (Homo sapiens, UniProt Q16513)
Misshapen-like kinase 1 = Misshapen-like kinase 1 (Homo sapiens, UniProt Q8N4C8);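 further: kinome panel screen with MINK as the panel member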
[2] = molecular target: Dual specificity mitogen-activated protein kinase kinase 2 (Homo sapiens, UniProt P36507); experiment: Navigating the Kinome. Panel member name: MAP2K2
Dual specificity mitogen-activated protein kinase kinase 2, sequence (P36507 whole entry): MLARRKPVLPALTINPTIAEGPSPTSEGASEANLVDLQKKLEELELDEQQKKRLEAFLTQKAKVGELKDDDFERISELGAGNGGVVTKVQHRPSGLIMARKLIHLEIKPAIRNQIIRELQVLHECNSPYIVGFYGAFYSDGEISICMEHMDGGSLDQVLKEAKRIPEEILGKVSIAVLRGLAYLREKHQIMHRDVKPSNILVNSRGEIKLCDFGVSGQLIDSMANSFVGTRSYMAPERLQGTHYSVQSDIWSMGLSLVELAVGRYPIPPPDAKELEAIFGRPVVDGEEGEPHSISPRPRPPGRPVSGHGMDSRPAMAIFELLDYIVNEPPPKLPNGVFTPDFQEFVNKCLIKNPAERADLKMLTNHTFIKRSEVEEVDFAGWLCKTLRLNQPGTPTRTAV

[3] = molecular target: Serine/threonine-protein kinase 3 (Homo sapiens, UniProt Q13188);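 further: measured as one member of a kinome-wide kinase panel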
Serine/threonine-protein kinase 3, sequence (Q13188 whole entry): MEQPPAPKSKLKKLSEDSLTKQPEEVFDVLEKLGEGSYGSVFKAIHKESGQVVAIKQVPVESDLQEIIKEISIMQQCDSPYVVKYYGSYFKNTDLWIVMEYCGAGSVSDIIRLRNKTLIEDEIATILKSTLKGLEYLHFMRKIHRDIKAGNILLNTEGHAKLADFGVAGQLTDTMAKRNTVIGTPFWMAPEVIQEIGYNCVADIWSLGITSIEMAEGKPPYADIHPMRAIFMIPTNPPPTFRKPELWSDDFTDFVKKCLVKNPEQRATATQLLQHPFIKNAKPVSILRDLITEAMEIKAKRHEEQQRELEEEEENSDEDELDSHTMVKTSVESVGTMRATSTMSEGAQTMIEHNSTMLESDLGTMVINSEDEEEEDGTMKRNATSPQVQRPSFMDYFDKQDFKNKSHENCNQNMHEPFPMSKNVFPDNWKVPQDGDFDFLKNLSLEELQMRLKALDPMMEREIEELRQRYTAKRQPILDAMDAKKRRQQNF

[4] = reduction of Shn3 3'UTR-driven luciferase in osteoblasts – cell-based, Clone20 osteoblasts, firefly luciferase, cherry-picked, dose response (AID 624132);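 further: firefly luciferase luminescence from reporter carrying the Shn3 3'UTR in osteoblasts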

Misshapen-like kinase 1, sequence (Q8N4C8 whole entry): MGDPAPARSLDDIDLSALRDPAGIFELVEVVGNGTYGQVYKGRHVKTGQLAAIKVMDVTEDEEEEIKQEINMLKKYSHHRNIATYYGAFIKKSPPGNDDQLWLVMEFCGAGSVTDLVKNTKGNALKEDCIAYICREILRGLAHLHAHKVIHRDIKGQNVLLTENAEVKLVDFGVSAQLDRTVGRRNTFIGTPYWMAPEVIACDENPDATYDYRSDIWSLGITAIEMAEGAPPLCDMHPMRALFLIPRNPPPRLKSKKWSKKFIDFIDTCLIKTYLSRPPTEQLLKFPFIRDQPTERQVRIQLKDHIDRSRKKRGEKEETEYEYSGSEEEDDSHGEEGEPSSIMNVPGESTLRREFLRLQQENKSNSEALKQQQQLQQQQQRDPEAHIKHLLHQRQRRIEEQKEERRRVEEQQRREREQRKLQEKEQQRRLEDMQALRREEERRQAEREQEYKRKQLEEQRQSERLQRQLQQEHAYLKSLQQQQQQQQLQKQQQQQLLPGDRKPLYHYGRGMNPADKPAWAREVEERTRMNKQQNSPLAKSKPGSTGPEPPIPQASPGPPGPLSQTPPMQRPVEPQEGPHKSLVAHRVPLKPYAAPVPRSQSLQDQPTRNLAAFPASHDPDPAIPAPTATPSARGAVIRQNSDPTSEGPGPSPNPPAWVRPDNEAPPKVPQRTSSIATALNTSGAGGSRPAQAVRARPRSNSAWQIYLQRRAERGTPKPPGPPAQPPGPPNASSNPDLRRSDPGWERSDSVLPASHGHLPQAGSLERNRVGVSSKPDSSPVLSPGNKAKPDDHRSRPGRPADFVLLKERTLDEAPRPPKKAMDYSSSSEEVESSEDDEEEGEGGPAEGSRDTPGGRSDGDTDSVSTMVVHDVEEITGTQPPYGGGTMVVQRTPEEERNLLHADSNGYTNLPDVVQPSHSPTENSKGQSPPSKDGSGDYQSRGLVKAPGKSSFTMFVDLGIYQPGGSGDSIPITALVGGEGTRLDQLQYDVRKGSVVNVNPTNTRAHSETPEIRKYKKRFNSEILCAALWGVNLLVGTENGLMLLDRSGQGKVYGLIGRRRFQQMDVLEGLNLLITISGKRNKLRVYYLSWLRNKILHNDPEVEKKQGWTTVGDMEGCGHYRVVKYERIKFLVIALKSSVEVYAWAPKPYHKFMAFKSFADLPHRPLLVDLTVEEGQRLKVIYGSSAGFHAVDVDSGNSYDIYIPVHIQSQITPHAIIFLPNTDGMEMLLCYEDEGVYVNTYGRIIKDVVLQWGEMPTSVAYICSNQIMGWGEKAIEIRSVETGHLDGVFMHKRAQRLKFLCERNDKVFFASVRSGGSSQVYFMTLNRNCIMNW
Serine/threonine-protein kinase N2, sequence (Q16513 whole entry): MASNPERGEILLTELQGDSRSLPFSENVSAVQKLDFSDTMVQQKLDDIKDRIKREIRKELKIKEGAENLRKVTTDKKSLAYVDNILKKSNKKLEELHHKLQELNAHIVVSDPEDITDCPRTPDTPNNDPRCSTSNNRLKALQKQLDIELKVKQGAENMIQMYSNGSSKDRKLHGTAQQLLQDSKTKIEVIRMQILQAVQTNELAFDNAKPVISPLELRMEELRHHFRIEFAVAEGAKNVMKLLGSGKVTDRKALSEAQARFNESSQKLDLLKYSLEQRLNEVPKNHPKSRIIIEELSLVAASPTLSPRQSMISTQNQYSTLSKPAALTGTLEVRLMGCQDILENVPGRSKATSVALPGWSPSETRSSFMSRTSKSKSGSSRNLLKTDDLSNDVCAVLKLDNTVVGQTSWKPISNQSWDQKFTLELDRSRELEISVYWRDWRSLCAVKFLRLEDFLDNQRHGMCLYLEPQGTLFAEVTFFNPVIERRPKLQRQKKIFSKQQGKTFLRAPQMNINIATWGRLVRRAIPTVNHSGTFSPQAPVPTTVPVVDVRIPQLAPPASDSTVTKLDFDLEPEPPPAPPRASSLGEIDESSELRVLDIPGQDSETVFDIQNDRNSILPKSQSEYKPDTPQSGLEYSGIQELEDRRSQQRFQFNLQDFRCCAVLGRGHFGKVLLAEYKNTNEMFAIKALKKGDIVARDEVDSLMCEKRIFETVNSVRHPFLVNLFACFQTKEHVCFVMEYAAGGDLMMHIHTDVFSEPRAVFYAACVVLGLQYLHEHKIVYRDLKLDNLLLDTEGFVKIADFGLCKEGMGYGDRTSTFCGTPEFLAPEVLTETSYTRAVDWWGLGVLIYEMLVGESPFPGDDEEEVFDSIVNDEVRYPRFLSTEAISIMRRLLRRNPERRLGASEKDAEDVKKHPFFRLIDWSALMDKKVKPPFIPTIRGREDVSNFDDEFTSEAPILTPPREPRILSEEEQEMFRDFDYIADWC

| Ki [1] | Ki (Misshapen-like kinase 1) | Ki [2] | Ki [3] | Structure (SMILES) | AC50 [4] |
| --- | --- | --- | --- | --- | --- |
| > 7.94 µM (inactive) | 3.98 µM (active) | > 3.98 µM (inactive) | > 3.16 µM (inactive) | COc1cc2c(cc1Nc1nc(Nc3cccc(F)c3C(N)=O)c3cc[nH]c3n1)N(C(=O)CN(C)C)CC2 | – |
| – | – | – | – | CCn1nc(/C=C/c2ccccc2)nc2c(=O)n(C)c(=O)nc1-2 | 2.57 µM (active) |
